What was measured:
[1] = molecular target: T1, GSPT1 (Homo sapiens, UniProt P15170+Q96SW2); assay: Degradation of GSPT1 by the compounds (HiBiT signal in GSPT1/HEK293 hibit cells); assay type: cell-based; conditions: 6 h incubation, Nano Glo HiBiT Lytic Detection
T1 construct: host or cells: HEK293
Experimental: GSPT1/HEK293 hibit cell lines were constructed by Shanghai BioDuro Co., Ltd., HEK293 cell lines were purchased from ATCC (Cat #ATCC® CRL-1573™), DMEM media were purchased from ATCC (Cat #ATCC® 30-2002™), FBS was purchased from Gibco (Cat #10091148), Nano Glo HiBiT Lytic Detection System was purchased from Promega (Cat #N3040), and 96-well plates were purchased from coming (Cat #3610).
The degradation of GSPT1 by the compounds was determined by measuring the intensity of hibit signals in cells. Firstly, the cells were digested with pancreatin, and the digestion was then terminated with medium. The cells were centrifuged, and the supernatant was discarded. The centrifuged cells were resuspended in a fresh complete medium, and the cell density was adjusted to 2.5×10^4 cells/mL. The resuspended cells were inoculated into an opaque 96-well cell culture plate at 100 μL of cell suspension per well, and the cell culture plate was incubated in a cell incubator at 37° C. overnight. The next day, dilutions (20 μL) of compounds with different concentrations were added, and the plate was incubated in a cell incubator for 6 h. After 6 h, 60 μL of Nano Glo HiBiT Lytic Detection System reagent was added and the luminescence values were read on the instrument.
According to the corresponding degradation rate and concentration of each gradient concentration well, a gradient curve of degradation rate was fitted using XLFit software, and the DC50 values of compounds were calculated.

[2] = system: HL60 cells; assay: HL60 cell killing experiment (CellTiter-Glo cell viability); assay type: cell-based; conditions: CTG luminescence
Experimental: HL60 cell lines were purchased from ATCC (Cat #ATCC® CCL-240™), IMDM media were purchased from ATCC (Cat #ATCC® 30-2005™), FBS was purchased from Gibco (Cat #10091148), celltiter-glo luminescent cell viability assay was purchased from promega (Cat #G7572), and 96-well plates were purchased from corning (Cat #3610).
The effect of compounds on the growth of HL60 cells was determined by measuring cell viability. Firstly, cells in the logarithmic growth phase were collected and centrifuged, and the culture supernatant was discarded. The centrifuged cells were resuspended in a fresh complete medium, and the cell density was adjusted to 5×10^4 cells/mL. The resuspended cells were inoculated into two opaque 96-well cell culture plates at 100 μL of cell suspension per well, and the cell culture plates were incubated in a cell incubator at 37° C. for 4 h. After 4 h, dilutions (20 μL) of compounds with different concentrations were added. After one of the cell plates was cooled to room temperature, 60 μL of CTG reagent was added, and the luminescence values were read on the instrument as G0. The other one was incubated in a cell incubator for 48 h. After 48 h, 60 μL of CTG reagent was added, and the luminescence values were read on the instrument as G3.
According to the corresponding proliferation rate and concentration of each gradient concentration well, a gradient curve of cell proliferation was fitted using XLFit software, and the GI50 values of compounds were calculated.

[3] = Homo sapiens, HL-60, 48 h incubation

T1 sequence (P15170 whole entry): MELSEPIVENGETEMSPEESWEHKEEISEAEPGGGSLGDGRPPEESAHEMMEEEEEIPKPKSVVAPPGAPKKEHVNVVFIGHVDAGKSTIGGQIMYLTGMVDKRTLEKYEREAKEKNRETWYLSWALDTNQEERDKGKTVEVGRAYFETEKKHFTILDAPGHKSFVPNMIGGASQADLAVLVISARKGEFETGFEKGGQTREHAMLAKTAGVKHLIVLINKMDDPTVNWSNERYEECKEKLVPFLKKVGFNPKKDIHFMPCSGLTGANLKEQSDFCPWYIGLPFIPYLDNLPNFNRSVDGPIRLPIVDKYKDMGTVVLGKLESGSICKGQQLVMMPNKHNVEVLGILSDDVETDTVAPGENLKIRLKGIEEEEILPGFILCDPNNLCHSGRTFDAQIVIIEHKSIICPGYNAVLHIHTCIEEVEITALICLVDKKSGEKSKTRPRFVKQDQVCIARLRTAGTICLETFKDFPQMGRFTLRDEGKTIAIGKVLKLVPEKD
T1 sequence (Q96SW2 whole entry): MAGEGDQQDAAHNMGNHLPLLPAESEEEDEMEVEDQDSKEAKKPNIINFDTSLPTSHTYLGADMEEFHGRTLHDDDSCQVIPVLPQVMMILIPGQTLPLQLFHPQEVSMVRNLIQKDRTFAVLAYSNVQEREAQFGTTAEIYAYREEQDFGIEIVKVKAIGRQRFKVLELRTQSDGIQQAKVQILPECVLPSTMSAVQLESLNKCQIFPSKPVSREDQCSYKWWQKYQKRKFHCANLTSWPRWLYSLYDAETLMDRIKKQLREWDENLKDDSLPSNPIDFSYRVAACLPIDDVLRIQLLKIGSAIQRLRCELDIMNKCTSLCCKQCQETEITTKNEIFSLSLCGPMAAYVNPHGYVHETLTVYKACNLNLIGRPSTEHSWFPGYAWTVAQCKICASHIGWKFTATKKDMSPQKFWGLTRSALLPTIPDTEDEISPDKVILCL
T1 sequence (Q16531 whole entry partner): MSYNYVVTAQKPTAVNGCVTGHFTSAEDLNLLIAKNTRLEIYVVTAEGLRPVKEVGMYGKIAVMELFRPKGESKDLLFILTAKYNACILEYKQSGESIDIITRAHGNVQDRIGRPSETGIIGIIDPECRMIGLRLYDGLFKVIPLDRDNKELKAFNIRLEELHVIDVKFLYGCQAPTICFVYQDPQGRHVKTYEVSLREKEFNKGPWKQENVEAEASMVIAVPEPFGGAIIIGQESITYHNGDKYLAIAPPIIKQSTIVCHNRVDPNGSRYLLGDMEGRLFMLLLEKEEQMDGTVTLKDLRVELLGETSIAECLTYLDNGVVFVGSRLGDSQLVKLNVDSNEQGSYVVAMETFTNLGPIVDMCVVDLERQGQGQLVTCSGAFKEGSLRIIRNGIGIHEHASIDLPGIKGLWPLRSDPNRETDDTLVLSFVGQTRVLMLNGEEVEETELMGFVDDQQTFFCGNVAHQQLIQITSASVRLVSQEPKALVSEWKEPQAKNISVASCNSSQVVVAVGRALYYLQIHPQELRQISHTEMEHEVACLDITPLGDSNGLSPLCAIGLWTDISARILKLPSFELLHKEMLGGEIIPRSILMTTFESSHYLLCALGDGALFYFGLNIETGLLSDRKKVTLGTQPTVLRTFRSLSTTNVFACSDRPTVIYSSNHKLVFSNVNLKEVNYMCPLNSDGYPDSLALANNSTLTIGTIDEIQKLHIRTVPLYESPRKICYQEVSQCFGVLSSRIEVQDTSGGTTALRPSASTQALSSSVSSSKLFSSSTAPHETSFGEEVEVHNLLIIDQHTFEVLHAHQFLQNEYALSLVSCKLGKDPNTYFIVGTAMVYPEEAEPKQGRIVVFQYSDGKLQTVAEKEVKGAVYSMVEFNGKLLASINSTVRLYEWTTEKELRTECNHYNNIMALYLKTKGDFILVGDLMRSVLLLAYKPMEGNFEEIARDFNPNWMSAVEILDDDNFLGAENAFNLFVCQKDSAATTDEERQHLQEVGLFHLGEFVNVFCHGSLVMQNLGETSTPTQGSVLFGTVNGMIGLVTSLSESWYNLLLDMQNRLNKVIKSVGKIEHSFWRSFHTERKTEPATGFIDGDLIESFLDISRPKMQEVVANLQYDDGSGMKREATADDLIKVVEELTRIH

| Compound | DC50 [1] | GI50 [2, 3] | GI50 ([2]; 48 h incubation) |
| --- | --- | --- | --- |
| O=C1CCC(N2C(=O)c3cccc(NCCCCC(=O)NC4CCC(c5nc6ccccc6[nH]5)CC4)c3C2=O)C(=O)N1 (stereo not drawn) [Example 5] | < 100 nM | < 100 nM | – |
| O=C1CCC(N2C(=O)c3cccc(NCCCCC(=O)NC4CCC(c5nc6ccncc6[nH]5)CC4)c3C2=O)C(=O)N1 (stereo not drawn) [Example 6] | < 100 nM | < 100 nM | – |
| Cn1c(C2CCC(NC(=O)CCCCNc3cccc4c3C(=O)N(C3CCC(=O)NC3=O)C4=O)CC2)nc2ccncc21 (stereo not drawn) [Example 8] | < 100 nM | < 100 nM | – |
| O=C1CCC(N2C(=O)c3cccc(NCc4ccnc(C(=O)NC5CCC(c6nc7ccccc7[nH]6)CC5)c4)c3C2=O)C(=O)N1 (stereo not drawn) [Example 19] | < 100 nM | < 100 nM | – |
| O=C1CCC(N2C(=O)c3cccc(NCc4cccc(C(=O)NC5CCC(c6n[nH]c7ccncc67)CC5)c4)c3C2=O)C(=O)N1 (stereo not drawn) [Example 20] | – | < 100 nM | – |
| Cn1c(C2CCC(NC(=O)c3cccc(CNc4cccc5c4C(=O)N(C4CCC(=O)NC4=O)C5=O)n3)CC2)nc2ccncc21 (stereo not drawn) [Example 21] | < 100 nM | < 100 nM | – |
| Cn1c(C2CCC(NC(=O)c3cc(CNc4cccc5c4C(=O)N(C4CCC(=O)NC4=O)C5=O)ccn3)CC2)nc2ccncc21 (stereo not drawn) [Example 23] | < 100 nM | < 100 nM | – |
| Cn1c(C2CCC(NC(=O)c3cc(CNc4cccc5c4C(=O)N(C4CCC(=O)NC4=O)C5=O)ccn3)CC2)nc2ccncc21 (stereo not drawn) [Example 25] | < 100 nM | – | < 100 nM |
| O=C1CCC(N2C(=O)c3cccc(NCc4ccnc(NC[C@H]5CC[C@H](c6nc7cccnc7s6)CC5)c4)c3C2=O)C(=O)N1 (stereo partly drawn) [Example 28] | – | < 100 nM | – |
| O=C1CCC(N2C(=O)c3cccc(NCCCCC(=O)NC4CCC(c5nc6c(cnc7[nH]ccc76)[nH]5)CC4)c3C2=O)C(=O)N1 (stereo not drawn) [Example 29] | < 100 nM | < 100 nM | – |
| Cn1c(N2CCC(NC(=O)c3cc(CNc4cccc5c4C(=O)N(C4CCC(=O)NC4=O)C5=O)ccn3)CC2)nc2ccccc21 (stereo not drawn) [Example 41] | – | < 100 nM | – |
| O=C1CCC(N2C(=O)c3cccc(NCc4cccc(C(=O)NC5CCC(c6csc7ccccc67)CC5)c4)c3C2=O)C(=O)N1 (stereo not drawn) [Example 45] | – | < 100 nM | – |
| O=C1CCC(N2C(=O)c3cccc(NCc4cccc(C(=O)NC5CCC(c6csc7ccccc67)CC5)c4)c3C2=O)C(=O)N1 (stereo not drawn) [Example 46] | – | – | < 100 nM |
| O=C1CCC(N2C(=O)c3cccc(NCc4cccc(C(=O)NC5CCC(c6csc7ncccc67)CC5)c4)c3C2=O)C(=O)N1 (stereo not drawn) [Example 54] | – | < 100 nM | – |
| CN(C[C@H]1CC[C@H](c2nc3cccnc3s2)CC1)c1cc(CNc2cccc3c2C(=O)N(C2CCC(=O)NC2=O)C3=O)ccn1 (stereo partly drawn) [Example 64] | – | < 100 nM | – |
| Cn1c2ccccc2nc1[C@H]1CC[C@H](N2Cc3ccc(CNc4cccc5c4C(=O)N(C4CCC(=O)NC4=O)C5=O)cc3C2=O)CC1 (stereo partly drawn) [Example 68] | – | < 100 nM | – |

| Compound | DC50 [1] | GI50 [2, 3] | GI50 ([2]; 48 h incubation) |
| --- | --- | --- | --- |
| Cn1c2ccc(CNc3cccc4c3C(=O)N(C3CCC(=O)NC3=O)C4=O)cc2nc1[C@H]1CC[C@H](c2nc3cccnc3s2)CC1 (stereo partly drawn) [Example 73] | – | < 100 nM | – |
| Cn1c2cnccc2nc1[C@H]1CC[C@H](C(=O)Nc2cccc(CNc3cccc4c3C(=O)N(C3CCC(=O)NC3=O)C4=O)c2F)CC1 (stereo partly drawn) [Example 78] | – | < 100 nM | – |
| O=C1CCC(N2C(=O)c3cccc(NCc4cccc5c4CCN5C(=O)[C@H]4CC[C@H](c5nc6cccnc6s5)CC4)c3C2=O)C(=O)N1 (stereo partly drawn) [Example 87] | – | < 100 nM | – |
| COc1cc2nc(C3CCC(NC(=O)c4cccc(CNc5cccc6c5C(=O)N(C5CCC(=O)NC5=O)C6=O)c4)CC3)n(C)c2cn1 (stereo not drawn) [Example 88] | – | < 100 nM | – |
| O=C1CCC(N2C(=O)c3cccc(NC4(c5ccnc(C(=O)N[C@H]6CC[C@H](c7nc8cccnc8s7)CC6)c5)CC4)c3C2=O)C(=O)N1 (stereo partly drawn) [Example 92] | – | < 100 nM | – |
| CN(C)c1ccc2c(c1)nc(C1CCC(NC(=O)c3cccc(CNc4cccc5c4C(=O)N(C4CCC(=O)NC4=O)C5=O)c3)CC1)n2C (stereo not drawn) [Example 102] | – | < 100 nM | – |
| CN(C)c1cc2c(cn1)nc([C@H]1CC[C@H](C(=O)Nc3cccc(CNc4cccc5c4C(=O)N(C4CCC(=O)NC4=O)C5=O)c3)CC1)n2C (stereo partly drawn) [Example 103] | – | < 100 nM | – |
| CN(C)c1cc2c(cn1)nc([C@H]1CC[C@H](NC(=O)c3cc(CNc4cccc5c4C(=O)N(C4CCC(=O)NC4=O)C5=O)ccn3)CC1)n2C (stereo partly drawn) [Example 106] | – | < 100 nM | – |
| Cn1c2cc(N)ccc2nc1[C@H]1CC[C@H](NC(=O)c2cc(CNc3cccc4c3C(=O)N(C3CCC(=O)NC3=O)C4=O)ccn2)CC1 (stereo partly drawn) [Example 131] | < 100 nM | – | – |
| COc1ccc(CNc2cccc3c2C(=O)N(C2CCC(=O)NC2=O)C3=O)cc1C(=O)N[C@H]1CC[C@H](c2nc3cc(N)cnc3s2)CC1 (stereo partly drawn) [Example 132] | < 100 nM | – | – |
| COc1ccc(CNc2cccc3c2C(=O)N(C2CCC(=O)NC2=O)C3=O)cc1C(=O)N[C@H]1CC[C@H](c2nc3cc(N)ccc3s2)CC1 (stereo partly drawn) [Example 133] | < 100 nM | – | – |
| COc1ncc(CNc2cccc3c2C(=O)N(C2CCC(=O)NC2=O)C3=O)cc1C(=O)N[C@H]1CC[C@H](c2nc3cccnc3s2)CC1 (stereo partly drawn) [Example 134] | < 100 nM | – | – |
| O=C1CCC(N2Cc3c(OCc4ccnc(NC[C@H]5CC[C@H](c6nc7cccnc7s6)CC5)c4)cccc3C2=O)C(=O)N1 (stereo partly drawn) [Example 135] | < 100 nM | – | – |
| COc1ccc2nc([C@H]3CC[C@H](CNc4cc(COc5cccc6c5CN(C5CCC(=O)NC5=O)C6=O)ccn4)CC3)sc2n1 (stereo partly drawn) [Example 136] | < 100 nM | – | – |
| COc1ccc2nc([C@H]3CC[C@H](CNc4cc(CNc5cccc6c5C(=O)N(C5CCC(=O)NC5=O)C6=O)ccn4)CC3)sc2n1 (stereo partly drawn) [Example 137] | < 100 nM | – | – |

Now from value to molecule, other results behind:

| DC50 [1] | Compound | GI50 [2, 3] | GI50 ([2]; 48 h incubation) |
| --- | --- | --- | --- |
| < 100 nM | O=C1CCC(N2C(=O)c3cccc(NCc4cccc(C(=O)NC5CCC(c6nsc7ccccc67)CC5)c4)c3C2=O)C(=O)N1 (single isomer, unassigned) [Example 52] | < 100 nM | – |
| < 100 nM | O=C1CCC(N2C(=O)c3cccc(NCc4cccc(C(=O)NC5CCC(c6nsc7ccccc67)CC5)c4)c3C2=O)C(=O)N1 (single isomer, unassigned) [Example 53] | – | < 100 nM |
| < 100 nM | O=C1CCC(N2C(=O)c3cccc(NCc4cccc(C(=O)NC5CCCC(F)C5)c4)c3C2=O)C(=O)N1 (stereo not drawn) [Example 1] | < 100 nM | – |
| < 100 nM | COC1CCCC(NC(=O)c2cccc(CNc3cccc4c3C(=O)N(C3CCC(=O)NC3=O)C4=O)c2)C1 (stereo not drawn) [Example 2] | < 100 nM | – |
| < 100 nM | O=C1CCC(N2C(=O)c3cccc(NCc4cccc(C(=O)NC5CCCC(F)(F)C5)c4)c3C2=O)C(=O)N1 (stereo not drawn) [Example 3] | – | – |
| < 100 nM | O=C1CCC(N2C(=O)c3cccc(NCc4cccc(C(=O)NC5CCC(c6ccccc6)CC5)c4)c3C2=O)C(=O)N1 (stereo not drawn) [Example 4] | – | – |
| < 100 nM | Cn1c(C2CC(NC(=O)c3cccc(CNc4cccc5c4C(=O)N(C4CCC(=O)NC4=O)C5=O)c3)C2)nc2ccncc21 (stereo not drawn) [Example 9] | – | – |
| < 100 nM | O=C1CCC(N2C(=O)c3cccc(NCc4cccc(C(=O)NC5CCC(c6cc7ccccc7o6)CC5)c4)c3C2=O)C(=O)N1 (stereo not drawn) [Example 12] | < 100 nM | – |
| < 100 nM | O=C1CCC(N2C(=O)c3cccc(NCc4cccc(C(=O)NC5CCC(c6coc7ccccc67)CC5)c4)c3C2=O)C(=O)N1 (stereo not drawn) [Example 13] | < 100 nM | – |
| < 100 nM | O=C1CCC(N2C(=O)c3cccc(NCc4cccc(C(=O)NC5CCC(c6n[nH]c7ccccc67)CC5)c4)c3C2=O)C(=O)N1 (stereo not drawn) [Example 14] | < 100 nM | – |
| < 100 nM | O=C1CCC(N2C(=O)c3cccc(NCc4cccc(C(=O)NC5CCC(c6n[nH]c7ccccc67)CC5)c4)c3C2=O)C(=O)N1 (stereo not drawn) [Example 15] | – | < 100 nM |
| < 100 nM | O=C1CCC(N2C(=O)c3cccc(NCc4cccc(C(=O)NC5CCC(c6nc7ccccc7o6)CC5)c4)c3C2=O)C(=O)N1 (stereo not drawn) [Example 17] | – | < 100 nM |
| < 100 nM | O=C1CCC(N2C(=O)c3cccc(NCc4cccc(C(=O)NC5CCC(c6nc7cccnc7[nH]6)CC5)c4)c3C2=O)C(=O)N1 (stereo not drawn) [Example 18] | < 100 nM | – |
| < 100 nM | O=C1CCC(N2C(=O)c3cccc(NCc4ccnc(C(=O)NC5CCC(c6nc7ccccc7o6)CC5)c4)c3C2=O)C(=O)N1 (stereo not drawn) [Example 22] | < 100 nM | – |
| < 100 nM | Cn1c(C2CCC(NC(=O)c3cccc(CNc4cccc5c4C(=O)N(C4CCC(=O)NC4=O)C5=O)c3)CC2)nc2ccccc21 (stereo not drawn) [Example 33] | < 100 nM | – |

From patent US20250361239A1, “PROTEIN DEGRADERS AND USES THEREOF” (ZHUHAI YUFAN BIOTECHNOLOGIES CO., LTD., priority 2022, published 2025)
